Columns and labels:
[1] = system: Rattus norvegicus; assay: Diuretic activity in rat was determined by measuring sodium excretion at a dose of 10 mg/kg upon oral administration; type: functional, Urine
[2] = biological target: T1, Adenosine receptor A1 (Cavia porcellus, UniProt P47745); assay: Inhibition of adenosine induced negative inotropic activity against guinea-pig atria (Adenosine A1 receptor) at 10 nM; type: functional
T1 sequence (P47745 whole entry): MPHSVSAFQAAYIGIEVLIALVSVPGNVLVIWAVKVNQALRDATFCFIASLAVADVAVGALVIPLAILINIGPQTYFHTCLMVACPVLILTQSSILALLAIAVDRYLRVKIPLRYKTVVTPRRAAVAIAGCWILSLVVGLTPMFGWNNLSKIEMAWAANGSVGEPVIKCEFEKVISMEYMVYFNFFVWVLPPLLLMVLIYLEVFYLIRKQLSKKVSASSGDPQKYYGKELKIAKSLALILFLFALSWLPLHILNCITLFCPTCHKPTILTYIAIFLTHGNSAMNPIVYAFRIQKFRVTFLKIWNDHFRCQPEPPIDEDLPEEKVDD

[3] = system: Rattus norvegicus; assay: Diuretic activity in rat was determined by measuring urine volume at a dose of 10 mg/kg upon oral administration; type: functional
[4] = biological target: T2, Adenosine receptor A1 (Rattus norvegicus, UniProt P25099); assay: Inhibition of [3H]CHA binding against Adenosine A1 receptors of rat cortical membranes; type: cell membranes, Membrane
T2 sequence (P25099 whole entry): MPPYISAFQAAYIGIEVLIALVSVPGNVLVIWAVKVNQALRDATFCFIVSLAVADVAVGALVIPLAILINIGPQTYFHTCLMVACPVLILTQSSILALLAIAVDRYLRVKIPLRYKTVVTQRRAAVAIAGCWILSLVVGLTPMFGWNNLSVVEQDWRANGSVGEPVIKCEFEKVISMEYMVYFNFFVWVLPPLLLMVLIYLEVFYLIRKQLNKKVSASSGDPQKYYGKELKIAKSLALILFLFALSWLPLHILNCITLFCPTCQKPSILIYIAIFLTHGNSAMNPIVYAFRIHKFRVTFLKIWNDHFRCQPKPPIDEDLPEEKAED

[5] = biological target: T1, Adenosine receptor A1; assay: Inhibition of adenosine induced negative inotropic activity against guinea-pig atria (Adenosine A1 receptor); type: functional

| SMILES | Sodium excretion (% of control) [1] | IC50 [2] | Urine volume (% of control) [3] | IC50 [4] | IC50 [5] |
| --- | --- | --- | --- | --- | --- |
| CCC1CCCCN1C(=O)/C=C/c1c(-c2ccccc2)nc2sc(C)nn12 (stereo unspecified) | 278% | 91 nM | 242% |  |  |
| O=C(/C=C/c1c(-c2ccccc2)nn2ccccc12)N1CCCCC1 | 179% |  | 195% |  |  |
| O=C(/C=C/c1c(-c2ccccc2)nn2ccccc12)N1CCCC[C@@H]1CCO [FK453] | 96% |  | 96% | 10100 nM |  |
| CC[C@@H]1CCCCN1C(=O)/C=C/c1c(-c2ccccc2)nn2ccccc12 | 220% |  | 201% |  |  |
| CC[C@H]1CCCCN1C(=O)/C=C/c1c(-c2ccccc2)nn2ccccc12 | 91% |  | 94% |  |  |
| O=C(/C=C/c1c(-c2ccccc2)nn2ccccc12)N1CCCC[C@H]1CCO | 280% |  | 272% | 17.2 nM | 0.56 nM |
